Structures are written as SMILES. Where two headings read alike, the source gives them in different places.

The record followed here is patent US4194006A, “Therapeutic application of acetyl-d,l-carnitine and other acyl derivatives of d,l-carnitine” (priority 1977, dated 1980).

For one test, the system named is female rats. In words: antifatigue effect: rota-rod. It counts as in vivo, rat. The conditions noted are these: Rattus norvegicus, ip, 0.25 h; for responders at 0.25 mg/kg: read-out: percentage of animals staying on the rota-rod more than 180 seconds, 0.25 mg/kg i.p.; for responders at 0.5 mg/kg: read-out: percentage of animals staying on the rota-rod more than 180 seconds, 0.50 mg/kg i.p.; for responders at 1 mg/kg: read-out: percentage of animals staying on the rota-rod more than 180 seconds, 1.00 mg/kg i.p.; for responders at 300 mg/kg: read-out: percentage of animals staying on the rota-rod more than 180 seconds, 300 mg/kg i.p.; for responders at 400 mg/kg: read-out: percentage of animals staying on the rota-rod more than 180 seconds, 400 mg/kg i.p.; for responders at 600 mg/kg: read-out: percentage of animals staying on the rota-rod more than 180 seconds, 600 mg/kg i.p. As to the method:
The antifatigue effect was also examined with the following results. The antifatigue effect was investigated by administering the compounds of the formula (I) according to the present application to female rats intraperitoneally in saline solution and saline solution alone to the controls by the same route. Every 15 minutes (sessions) after treatment, the animals were placed on a 6 cm diameter rod, rotating at 16 r.p.m. The percentage of the animals capable of staying on the rota-rod for a duration of more than 180 seconds was then recorded.
(In general: In the rotarod test animals must keep their balance on a rotating rod.)

Test [1] has as its system isolated rabbit hearts. Nature of the test: cardiokinetic effect on isolated heart (Langendorff): contractile force after anoxia, positive inotropic effect. The settings on record: 10 minutes from interruption of anoxic period. As to the method:
(§1) The cardiokinetic effect on isolated heart was also investigated as follows. Rabbit hearts isolated by the Langendorff method were perfused with oxygenized ringer solution at 38.2° C. The isometric contractions, electrocardiogram and coronary flow were recorded using a "Battaglia-Rangoni" polygraph. By removing the oxygen from the perfusion fluid, metabolic damage was induced in the cardia muscle, up to an 80% reduction in the cardiac contractile force.
(§2) Under these conditions of prolonged anoxia the aerobic glycolysis of the myocardium is slowed down, accompanied by the storage of acid catabolites due to both the accumulation of pyruvic acid and its conversion to lactic acid which cannot be utilized because of the depression of pyridine enzymes, such as LDH (lactodehydrogenase). This has repercussions on the anaerobic glycolysis affecting an ever increasing number of enzymes, accompanied by a progressive and increasingly critical exhaustion of the myocardium. Thus a whole series of cardiac muscle fatigue levels occurs which can be observed by the behavior of the examined parameters, namely the contractile force, coronary flow, heart rate and cardiac rhythm. As soon as the contractile force was reduced by 80%, the perfusion fluid was once again oxygenized either without adding other compounds (controls) or with the addition of the compounds under examination.
Table 3 below gives the percentage values of the contractile force of the heart, showing a positive inotropic effect, calculated after 10 minutes from the interruption of the anoxic period (myocardial restoration).

For a further test, the system named is isolated rat atrium. Nature of the test: antiarrhythmic effect, isolated rat atrium method of M. Libonati and G. Segre. The settings on record: Rattus norvegicus.
Test [2] has as its system isolated rabbit hearts. In words: coronary vasodilator effect: coronary flow, isolated heart (Langendorff). As to the method:
as §1, §2

Where [3] appears, read: session 6 (every 15 minutes), * p < 0.05.
The mark [4] stands for this setting: read-out: Mean percent variation versus controls: excitability (-%).
[5] abbreviates: read-out: Mean percent variation versus controls: frequency max (-%).
Where [6] appears, read: read-out: Mean percent variation versus controls: refractory period (+%).
Setting [7] is: read-out: Mean percent variation versus controls: rheobase (+%).

In the case of `CC(N)Cc1ccccc1` (racemic) [d,l-amphetamine, reference compound], the responders at 0.25 mg/kg with female rats (session 1 (every 15 minutes)) was 0%; in the test on female rats (session 2 (every 15 minutes)), 12.5%; in the test on female rats (session 3 (every 15 minutes)) it was 25%; in the test on female rats (session 4 (every 15 minutes)), 25%; in the test with female rats (session 5 (every 15 minutes)), 25%; in the test with female rats (session 6 (every 15 minutes)), 25%. The responders at 0.5 mg/kg in the test on female rats (session 1 (every 15 minutes)) turned out to be 0%; in the test with female rats (session 2 (every 15 minutes)), 5.88%; in the test on female rats (session 3 (every 15 minutes)), 11.8%; in the test on female rats (session 4 (every 15 minutes)), 23.5%; in the test on female rats (session 5 (every 15 minutes)), 29.4%; in the test on female rats (session 6 (every 15 minutes)) it was 35.3%. For the same molecule, the responders at 1 mg/kg was determined as 0% in the test on female rats (session 1 (every 15 minutes)); 8.33% with female rats (session 2 (every 15 minutes)); 25% with female rats (session 3 (every 15 minutes)); 33.3% in the test with female rats (session 4 (every 15 minutes)); 58.3% in the test with female rats (session 5 (every 15 minutes), * p < 0.05); 58.3% with female rats (setting [3]).
Regarding `CCC(=O)OC(CC(=O)[O-])C[N+](C)(C)C` (racemic) [propionyl-d,l-carnitine], the “Contractile force, Mean ± S.E.” value stood at 60.1 ± 3.12% with isolated rabbit hearts [1] (1·10^-5 g/lt), 32.0 ± 5.06% in the test with isolated rabbit hearts [1] (1·10^-6 g/lt) and 38.4 ± 4.86% in the test on isolated rabbit hearts [1] (5·10^-6 g/lt). In addition, the inhibition at 0.001 µg/mL in the test with isolated rat atrium (setting [4]) stood at 2.24%; in the test with isolated rat atrium (setting [5]), 10.7%. Moreover, the inhibition at 0.01 µg/mL worked out at 28.4% with isolated rat atrium (setting [4]) and 11.4% with isolated rat atrium (setting [5]). Besides, the inhibition at 0.1 µg/mL with isolated rat atrium (setting [4]) is 14.7%; in the test on isolated rat atrium (setting [5]) it was 7.65%. The activation at 0.001 µg/mL worked out at 8.16% with isolated rat atrium (setting [6]) and 3.57% in the test on isolated rat atrium (setting [7]). The activation at 0.01 µg/mL with isolated rat atrium (setting [6]) turned out to be 14%; in the test on isolated rat atrium (setting [7]), 51.3%. The values for the activation at 0.1 µg/mL with isolated rat atrium (setting [6]) and in the test with isolated rat atrium (setting [7]) were 19.3% and 52.1%, respectively. Also, the responders at 300 mg/kg with female rats (session 1 (every 15 minutes)) was 0%; with female rats (session 2 (every 15 minutes)) it was 0%; with female rats (session 3 (every 15 minutes)), 0%; in the test on female rats (session 4 (every 15 minutes)), 10%; with female rats (session 5 (every 15 minutes)), 20%; in the test on female rats (session 6 (every 15 minutes)) it was 40%. For the same molecule, the responders at 400 mg/kg in the test with female rats (session 1 (every 15 minutes)) turned out to be 0%; in the test on female rats (session 2 (every 15 minutes)), 0%; in the test on female rats (session 3 (every 15 minutes)) it was 10%; in the test with female rats (session 4 (every 15 minutes)) it was 20%; in the test on female rats (session 5 (every 15 minutes)), 20%; in the test on female rats (setting [3]), 40%. Also, the responders at 600 mg/kg with female rats (session 1 (every 15 minutes)) was found to be 0%; with female rats (session 2 (every 15 minutes)) it was 10%; in the test on female rats (session 3 (every 15 minutes)), 20%; in the test on female rats (session 4 (every 15 minutes)), 30%; with female rats (session 5 (every 15 minutes)), 40%; in the test on female rats (setting [3]) it was 40%. For the same molecule, the “Coronary flow, Mean ± S.E.” value in the test on isolated rabbit hearts [2] (1·10^-5 g/lt) stood at 89.27 ± 7.24%; in the test on isolated rabbit hearts [2] (1·10^-6 g/lt), 80.61 ± 7.56%; in the test on isolated rabbit hearts [2] (5·10^-6 g/lt), 78.76 ± 11.03%.
`C=C[C@H]1C[N@@]2CC[C@H]1C[C@@H]2[C@@H](O)c1ccnc2ccc(OC)cc12` [Quinidine, reference compound]: the inhibition at 0.1 µg/mL in the test on isolated rat atrium (1·10^-4 g/lt, decrease, read-out: Mean percent variation versus controls: excitability (-%)) worked out at 189%; in the test with isolated rat atrium (1·10^-4 g/lt, decrease, read-out: Mean percent variation versus controls: frequency max (-%)), 71.2%. The activation at 0.1 µg/mL in the test with isolated rat atrium (1·10^-4 g/lt, increase, read-out: Mean percent variation versus controls: refractory period (+%)) came to 57.4%; with isolated rat atrium (1·10^-4 g/lt, increase, read-out: Mean percent variation versus controls: rheobase (+%)) it was 54.1%. For the same molecule, the inhibition at 0.01 µg/mL in the test on isolated rat atrium (1·10^-5 g/lt, decrease, read-out: Mean percent variation versus controls: excitability (-%)) amounted to 23.4%; in the test on isolated rat atrium (1·10^-5 g/lt, decrease, read-out: Mean percent variation versus controls: frequency max (-%)), 24.1%. Also, the activation at 0.01 µg/mL was 20.4% in the test on isolated rat atrium (1·10^-5 g/lt, increase, read-out: Mean percent variation versus controls: refractory period (+%)) and 25.1% in the test on isolated rat atrium (1·10^-5 g/lt, increase, read-out: Mean percent variation versus controls: rheobase (+%)). Besides, the inhibition at 0.001 µg/mL in the test with isolated rat atrium (1·10^-6 g/lt, decrease, read-out: Mean percent variation versus controls: excitability (-%)) amounted to 16.9%; in the test with isolated rat atrium (1·10^-6 g/lt, decrease, read-out: Mean percent variation versus controls: frequency max (-%)), 11.7%. In addition, the activation at 0.001 µg/mL with isolated rat atrium (1·10^-6 g/lt, increase, read-out: Mean percent variation versus controls: refractory period (+%)) turned out to be 3.12%; in the test with isolated rat atrium (1·10^-6 g/lt, increase, read-out: Mean percent variation versus controls: rheobase (+%)), 7.14%.
